Source: patent publication US11066368B2, “Process for the preparation and particle size reduction of pirfenidone” (Laurus Labs Limited, priority 2016, dated 2021)

Experiments:
Format in all cases: physicochemical
[1] = Particle size (D90) after ethyl acetate / n-heptane anti-solvent crystallisation
Experimental: The addition of antisolvent at different temperatures leads to formation of pirfenidone particles with different sizes; for instance: anti solvent addition at 0 to −10° C., preferably at −5±2° C. temperature forms small particles (D90: 50-100μ), at 0 to 10° C., preferably at 7±3° C. temperature forms particles of D90 at 100-150μ and at below 45° C. forms particles of D90 at 250-500μ.
Pirfenidone (83 g) was dissolved in ethyl acetate (425 mL), at 55-65° C., and then added to pre-cooled (−5±2° C.) n-Heptane (425 mL), over a period of 15-20 min, while maintaining temperature below 20° C. The suspension was stirred, at 0-5° C., for 1-2 h; filtered the product washed with chilled ethyl acetate (50 mL). The wet material was dried, at 60° C., under vacuum, for 6-8 h, to afford Pirfenidone as white colored powder. Yield: 65 g, HPLC purity 99.9%, PSD: (D90) 50-100μ.
Pirfenidone (81 g) was dissolved in ethyl acetate (425 mL), at 55-65° C., and then added to pre-cooled (7±3° C.) n-Heptane (425 mL), over a period of 15-20 min, while maintaining temperature below 20° C. The suspension was stirred, at 0-5° C., for 1-2 h; filtered the product washed with chilled ethyl acetate (50 mL). The wet material was dried, at 60° C., under vacuum, for 6-8 h, to afford Pirfenidone as white colored powder Yield: 61 g, HPLC purity 99.9%, PSD: (D90) 100-150μ.
Pirfenidone (81 g) was dissolved in ethyl acetate (500 mL), at 50-55° C., and then added to pre-cooled (8±3° C.) n-Heptane (500 mL), over a period of 15-20 min, while maintaining temperature below 25° C. The suspension was stirred, at 5-10° C., for 1-2 h; filtered the product washed with chilled ethyl acetate (50 mL). The wet material was dried, at 60° C., under vacuum, for 6-8 h, to afford Pirfenidone as white colored powder Yield: 57 g, HPLC purity 99.9%, PSD: (D90) 150-250μ.
Pirfenidone (80 g) was dissolved in ethyl acetate (400 mL), at 55-65° C., and then added to n-Heptane (400 mL), over a period of 5-10 min, while maintaining temperature below 45° C. The suspension was stirred, at 25-30° C., for 1-2 h; filtered the product washed with chilled ethyl acetate (50 mL). The wet material was dried, at 60° C., under vacuum, for 6-8 h, to afford Pirfenidone as white colored powder, Yield: 55 g, HPLC purity 99.9%, PSD: (D90) 250-500μ.

[2] = Dust explosion test by Modified Hartmann Apparatus; set-up: key to Dust explosion class (overall): St0H: No fire or explosion; St1H: Dust fire or mild explosion; St2H: Violent explosion; settings: for Dust explosion Class: sieved through 63μ
Experimental: This test was performed based on procedures from VDI 2263, Part 1 (Section 2.1.1), “Dust fires and dust explosions; hazards, assessment, protective measures”, using a Modified Hartmann Apparatus. Pirfenidone was dried at 50° C. under vacuum, sieved through 63μ sieve. Weighed amount of product was charged into a modified hartmann tube of 1.2 liter volume. The product was converted into a dust cloud in glass cylindrical tube with compressed air and electrodes with continuous spark was used as ignition source to ignite the dust cloud. Based on dust fire or extent of opening of the hinged cover rating 0, 1 or 2 are assigned.

[3] = Minimum ignition energy test by MIKE3; settings: dust cloud, dried at 50° C., sieved through 63μ
Experimental: This test was performed based on international test method VDI 2263 part 1.2.5 using MIKE3. Pirfenidone was dried at 50° C. under vacuum, sieved through 63μ sieve. The product was converted into a dust cloud in glass cylindrical tube with compressed air. The spark for ignition was provided with moving electrodes assembly at different energy levels from 1 mJ to 1000 mJ. The energy just sufficient to ignite the dust under ignition was determined. This ignition energy was then successively halved with variation of the dust concentration and the ignition delay time in a series of tests until no ignition takes place in at least 10 successive experiments. The minimum ignition energy MIE lies between the lowest energy value at which ignition occurred and at the energy value at which no ignition observed for 10 successive experiments. The recommendations for interpreting MIE results are based on energy levels available on MIKE 3 apparatus. According to usual practice, MIE can be ranked as follow: […]

[4] = Particle size distribution of unmilled input pirfenidone; settings: input material before wet milling (Reference Example 5)
Experimental: As used herein, the term “particle size distribution” is expressed in terms of D90, D50 and D10, which corresponds to the diameter of 90 percent by volume of the particles, 50 percent by volume of the particles and 10 percent by volume of the particles are present, respectively.
The particle size distribution of pirfenidone is measured utilizing: Instrument model: Malvern; Mastersizer 3000; particle refraction index of sample: 1.700; Absorption: 0.01 and Analysis model: general purpose, normal sensitivity, non-spherical particles.
Dissolving crude Pirfenidone (50 g) in ethyl acetate (100 mL) at 65-75° C. and the reaction mass was treated with activated carbon (5 g) and filtered through a short bed of Hyflo. The filtrate was partially concentrated, under reduced pressure while maintain temperature below 60° C. The mixture was gradually allowed to cool to 30±5° C. and then stirred for another 30-60 min. The suspension was again allowed to cool to 0-5° C. and maintained for another 2-3 h, at the same temperature. The precipitated material was filtered and then dried at 60±5° C., for 6-8 h, to afford Pirfenidone as white colored powder (HPLC purity 99.9%; dimer content 0.03%). Yield: 45 g.

For Cc1ccc(=O)n(-c2ccccc2)c1 [Pirfenidone, 5-methyl-1-phenyl-2-1(H)-pyridone], the “PSD: (D90)” value ([1]; Example 5: ethyl acetate solution, n-heptane anti-solvent at −5±2° C.) was 50-100 μ, the “PSD: (D90)” value ([1]; Example 6: ethyl acetate solution, n-heptane anti-solvent at 7±3° C.) was 100-150 μ and the “PSD: (D90)” value ([1]; Example 7: ethyl acetate solution, n-heptane anti-solvent at 8±3° C., temperature below 25° C.) was 150-250 μ. For the same compound, the “PSD: (D90)” value ([1]; Example 8: ethyl acetate solution, n-heptane anti-solvent, temperature below 45° C.) was 250-500 μ, the “Dust explosion Class” value ([2]; Wt. of sample 120 mg, eq. dust concentration 100 g/m3) was 1 and the “Dust explosion Class” value ([2]; Wt. of sample 240 mg, eq. dust concentration 200 g/m3) was 2. The “Dust explosion class (overall)” value ([2]; summary of safety studies) was “St2H”, the Es [3] was 1.7 mJ and the “Minimum ignition energy MIE” value [3] was 1.7 mJ. For the same compound, the “Particle size distribution D10” value [4] was 1330 μm, the “Particle size distribution D50” value [4] was 1950 μm and the “Particle size distribution D90” value [4] was 2840 μm.
